Assays:
integrin αvβ3 = integrin αvβ3 (Homo sapiens, UniProt P05106+P06756); conditions: cited from earlier work
[1] = tested on: basic fibroblast growth factor (bFGF, FGF2), vascular endothelial growth factor (VEGF); conditions: in the absence of thyroid hormone; cited from earlier work
glioma cells = conditions: in vitro; cited from earlier work
[2] = tested on: human breast cancer cells; conditions: in vitro; cited from earlier work
[3] = tested on: chick chorioallantoic membrane (CAM); test: Chick chorioallantoic membrane (CAM) angiogenesis assay; type: in vivo; conditions: pro-angiogenic factor alone
Description: Examples of the CAM assay methodology may include the step of providing chick embryos. In some embodiments, the chick embryos may be approximately 10 days old. The chick embryos may be incubated at approximately 37° C. with approximately 55% relative humidity. A hypodermic needle may be used to make a small hole in the shell concealing an air sac, and a second hole may be made on the broad side of the egg, directly over an avascular portion of the embryonic membrane. A false air sac may be created beneath the second hole by the application of negative pressure at the first hole, causing the CAM to separate from the shell. A window, approximately 1.0 cm^2, in size may be cut in the shell over the CAM with a small-crafts grinding wheel, allowing direct access to the underlying CAM. In some embodiments, a pro-angiogenic agent may be provided to induce new blood vessel branches on the CAM of 10-day-old embryos. In the exemplary embodiment, the pro-angiogenic agents may be the endogenous non-peptide pro-angiogenic hormones supplied in the patient's blood sample. The patient's blood sample may subsequently be introduced into the xenograft having a vasculature system in the CAM. The pro-angiogenic agent, the blood or serum sample of the patient along with one or more anti-angiogenic agents may be applied to a sterile disk and followed by allowing the disks to dry. In some embodiments of the CAM assay, Sterile disks of No. 1 filter paper (Whatman International) may be pretreated with approximately 3 mg/mL cortisone acetate and 1 mmol/L of the patient's blood or serum, along with one or more anti-angiogenic agents and air dried under sterile conditions. The disks may then be suspended in phosphate buffered saline (PBS) and placed on growing CAMs. At approximately the 24 hour mark, a mitogen-activated protein kinase (MAPK) cascade inhibitor such as PD 98059 may also be added to CAMs topically by means of the filter disks. Exemplary embodiments having one or more anti-angiogenic agent, may include two, three, four, five or more anti-angiogenic agents, including at least one thyroid hormone antagonist such as tetrac, triac, or conjugated tetrac or triac. After incubation at 37° C. with 55% relative humidity for 3 days, the CAM tissue directly beneath each filter disk may be resected and treated. The tissues may subsequently be washed approximately three times with PBS, placed in 35-mm Petri dishes (Nalge Nunc), and examined under a stereomicroscope at approximately 50× magnification or more. Digital images of CAM sections exposed to filters may be collected and quantified using a 3-charge-coupled device color video camera system and analyzed with Image-Pro software (Media Cybernetics) or equivalent software. Embodiments of the CAM system may not only index tumor-related angiogenesis, but permits spherical tumor growth of the implanted cells. Spherical growth may be important to the development of a hypoxic cell population that resemble tumor behavior clinically. Aggressive xenograft behavior in the CAM model may include metastasis to the chick embryo in the system.

Sequence of integrin αvβ3 (P06756 31-889 limits assumed): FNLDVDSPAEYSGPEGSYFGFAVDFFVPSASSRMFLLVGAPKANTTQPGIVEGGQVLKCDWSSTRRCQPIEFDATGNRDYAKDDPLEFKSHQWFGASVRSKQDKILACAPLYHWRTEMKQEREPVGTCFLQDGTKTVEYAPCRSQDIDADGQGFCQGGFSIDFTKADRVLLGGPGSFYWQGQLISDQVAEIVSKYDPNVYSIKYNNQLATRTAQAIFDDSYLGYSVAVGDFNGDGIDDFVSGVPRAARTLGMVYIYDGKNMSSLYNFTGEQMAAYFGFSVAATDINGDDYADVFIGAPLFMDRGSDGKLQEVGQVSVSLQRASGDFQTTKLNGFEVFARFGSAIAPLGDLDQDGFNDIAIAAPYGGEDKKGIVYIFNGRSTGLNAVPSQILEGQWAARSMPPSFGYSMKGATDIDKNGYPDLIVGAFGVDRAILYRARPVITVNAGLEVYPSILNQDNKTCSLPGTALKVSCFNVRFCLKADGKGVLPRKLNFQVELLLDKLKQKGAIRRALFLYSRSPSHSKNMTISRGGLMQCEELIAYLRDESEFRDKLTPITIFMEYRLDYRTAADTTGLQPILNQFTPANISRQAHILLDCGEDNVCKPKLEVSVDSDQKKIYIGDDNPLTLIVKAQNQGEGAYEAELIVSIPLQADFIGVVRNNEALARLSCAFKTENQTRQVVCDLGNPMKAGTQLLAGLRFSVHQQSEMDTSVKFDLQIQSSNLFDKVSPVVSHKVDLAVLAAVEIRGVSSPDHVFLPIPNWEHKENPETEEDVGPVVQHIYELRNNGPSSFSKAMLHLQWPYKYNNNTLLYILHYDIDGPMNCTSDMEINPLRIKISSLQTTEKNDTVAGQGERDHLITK
Sequence of integrin αvβ3 (P06756 891-1048 partner limits assumed): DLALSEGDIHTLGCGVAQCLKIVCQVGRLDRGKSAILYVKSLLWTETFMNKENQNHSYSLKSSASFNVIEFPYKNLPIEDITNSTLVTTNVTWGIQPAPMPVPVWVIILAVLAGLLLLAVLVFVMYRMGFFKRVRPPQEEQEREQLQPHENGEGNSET
Sequence of integrin αvβ3 (P05106 27-788): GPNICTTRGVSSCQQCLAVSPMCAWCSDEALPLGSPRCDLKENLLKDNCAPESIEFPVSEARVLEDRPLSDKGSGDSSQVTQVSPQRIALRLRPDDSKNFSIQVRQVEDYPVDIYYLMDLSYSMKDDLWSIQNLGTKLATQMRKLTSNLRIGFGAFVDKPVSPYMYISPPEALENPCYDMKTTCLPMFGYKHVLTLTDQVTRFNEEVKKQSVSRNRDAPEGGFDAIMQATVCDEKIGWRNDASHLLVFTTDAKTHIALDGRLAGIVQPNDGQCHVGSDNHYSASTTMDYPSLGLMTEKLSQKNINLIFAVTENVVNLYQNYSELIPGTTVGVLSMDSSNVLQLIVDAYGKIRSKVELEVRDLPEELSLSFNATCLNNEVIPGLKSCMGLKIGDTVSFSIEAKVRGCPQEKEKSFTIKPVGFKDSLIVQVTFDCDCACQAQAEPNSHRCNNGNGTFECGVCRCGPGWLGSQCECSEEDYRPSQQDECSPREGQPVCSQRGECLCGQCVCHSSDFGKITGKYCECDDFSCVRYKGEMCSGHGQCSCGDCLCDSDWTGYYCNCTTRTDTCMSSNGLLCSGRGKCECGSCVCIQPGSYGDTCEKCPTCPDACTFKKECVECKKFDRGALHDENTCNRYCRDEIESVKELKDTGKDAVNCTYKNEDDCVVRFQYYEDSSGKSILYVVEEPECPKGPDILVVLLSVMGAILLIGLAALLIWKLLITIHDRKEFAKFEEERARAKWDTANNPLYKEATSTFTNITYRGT

Compound | Branch points ± SEM [3] | also measured
Tetraiodothyroacetic acid [tetrac] |  | agonist activity at the integrin (integrin αvβ3): no agonist activity; binding of T4 and T3 to the integrin (integrin αvβ3): inhibits binding; angiogenic activity of bFGF, VEGF and other pro-angiogenic factors [1]: blocks the angiogenic activity; growth of glioma cells (glioma cells): arrest growth; growth of human breast cancer cells [2]: arrest growth
N[C@@H](Cc1cc(I)c(Oc2ccc(O)c(I)c2)c(I)c1)C(=O)O [T3, 3,5,3′-triiodo-L-thyronine] | 186.8 ± 16.4 | 
VEGF | 182.4 ± 8.4 | 
Angiotensin II (DRVYIHPF; Angiotensin-2; UniProt P01019 25-32, looked up) [small molecule that supports neovascularization; pro-angiogenic factor in the CAM assay] | 103.2 ± 25.9 | 
bFGF: basic fibroblast growth factor | 184.6 ± 18.5 | 
N[C@@H](Cc1cc(I)c(Oc2cc(I)c(O)c(I)c2)c(I)c1)C(=O)O [T4, L-thyroxine] | 119.2 ± 15.6 | 

— patent US10060934B2, “Methods for screening patients for resistance to angioinhibition, treatment and prophylaxis thereof” (NANOPHARMACEUTICALS LLC, priority 2013, dated 2018)
